Source: ChEMBL document CHEMBL1201862, “PubChem BioAssay data set” (2004)
Activity calls are given as the source filed them.

How the values were obtained:
[1] = target: Adenosylmethionine-8-amino-7-oxononanoate aminotransferase (Mycobacterium tuberculosis, UniProt P9WQ81); experiment: Mycobacterium tuberculosis BioA enzyme inhibitor Measured in Biochemical System Using Plate Reader - 2163-02_Inhibitor_Dose_CherryPick_Activity.; type: functional, Mycobacterium tuberculosis UT205
[2] = A549 cell cytotoxicity, dose response, cytotoxicity control, plate reader, cherry-pick, antagonist series (AID 743412); type: functional, cell-based
[3] = blockers of bursicon-stimulated LGR2 cAMP reporter – cell-based, HEK293, CRE-luciferase reporter, cherry pick, set 2, dose response (AID 743343); type: functional;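 further: transfected cells were stimulated with diluted bursicon conditioned medium after compound addition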
[4] = blockade of melanocortin 4 receptor signaling – cell-based, plate reader, cherry pick, counter-screen for LGR2 antagonist project, dose response (AID 743444); type: functional;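 further: transfected HEK 293 cells stimulated with alpha-MSH peptide; potency of inhibitors of the alpha-MSH evoked signal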
[5] = target: T1, Sentrin-specific protease 6 (Homo sapiens, UniProt Q9GZR1); type: functional;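 further: Luminescence-based dose-response confirmatory assay of SENP6 inhibition, following up an ultra-high-throughput screen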
T1 sequence (Q9GZR1 whole entry): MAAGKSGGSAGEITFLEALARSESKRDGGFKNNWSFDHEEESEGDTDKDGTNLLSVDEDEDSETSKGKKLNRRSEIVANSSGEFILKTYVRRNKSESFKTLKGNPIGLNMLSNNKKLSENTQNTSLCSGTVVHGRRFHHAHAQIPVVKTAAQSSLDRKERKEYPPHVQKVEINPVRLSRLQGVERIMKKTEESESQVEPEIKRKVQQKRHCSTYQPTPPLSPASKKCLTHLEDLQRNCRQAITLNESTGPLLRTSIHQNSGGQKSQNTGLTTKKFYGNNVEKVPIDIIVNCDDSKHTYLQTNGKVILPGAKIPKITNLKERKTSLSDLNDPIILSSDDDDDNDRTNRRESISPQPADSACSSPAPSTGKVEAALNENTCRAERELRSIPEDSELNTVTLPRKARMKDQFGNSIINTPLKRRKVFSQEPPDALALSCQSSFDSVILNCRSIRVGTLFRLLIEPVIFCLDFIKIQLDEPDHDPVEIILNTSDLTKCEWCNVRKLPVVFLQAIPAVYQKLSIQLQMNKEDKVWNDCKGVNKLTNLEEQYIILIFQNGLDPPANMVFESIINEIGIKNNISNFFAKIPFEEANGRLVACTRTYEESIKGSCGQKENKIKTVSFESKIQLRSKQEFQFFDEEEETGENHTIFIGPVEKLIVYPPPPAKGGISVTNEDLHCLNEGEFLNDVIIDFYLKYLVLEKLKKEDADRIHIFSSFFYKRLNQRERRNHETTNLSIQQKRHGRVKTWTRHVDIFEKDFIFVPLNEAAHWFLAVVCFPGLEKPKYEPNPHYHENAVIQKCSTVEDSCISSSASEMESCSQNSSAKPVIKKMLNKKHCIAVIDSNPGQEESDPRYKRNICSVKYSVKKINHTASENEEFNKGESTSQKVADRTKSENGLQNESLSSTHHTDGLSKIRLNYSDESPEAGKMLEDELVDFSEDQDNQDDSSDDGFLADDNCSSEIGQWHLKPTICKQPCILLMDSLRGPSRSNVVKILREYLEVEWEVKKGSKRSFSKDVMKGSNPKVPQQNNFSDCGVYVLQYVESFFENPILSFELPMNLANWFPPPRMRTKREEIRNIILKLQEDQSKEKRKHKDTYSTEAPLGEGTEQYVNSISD

[6] = target: T2, Sentrin-specific protease 7 (Homo sapiens, UniProt Q9BQF6); type: functional;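 further: Luminescence-based dose-response confirmation of ultra-high-throughput screening hits, measuring inhibition of SENP7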
T2 sequence (Q9BQF6 whole entry): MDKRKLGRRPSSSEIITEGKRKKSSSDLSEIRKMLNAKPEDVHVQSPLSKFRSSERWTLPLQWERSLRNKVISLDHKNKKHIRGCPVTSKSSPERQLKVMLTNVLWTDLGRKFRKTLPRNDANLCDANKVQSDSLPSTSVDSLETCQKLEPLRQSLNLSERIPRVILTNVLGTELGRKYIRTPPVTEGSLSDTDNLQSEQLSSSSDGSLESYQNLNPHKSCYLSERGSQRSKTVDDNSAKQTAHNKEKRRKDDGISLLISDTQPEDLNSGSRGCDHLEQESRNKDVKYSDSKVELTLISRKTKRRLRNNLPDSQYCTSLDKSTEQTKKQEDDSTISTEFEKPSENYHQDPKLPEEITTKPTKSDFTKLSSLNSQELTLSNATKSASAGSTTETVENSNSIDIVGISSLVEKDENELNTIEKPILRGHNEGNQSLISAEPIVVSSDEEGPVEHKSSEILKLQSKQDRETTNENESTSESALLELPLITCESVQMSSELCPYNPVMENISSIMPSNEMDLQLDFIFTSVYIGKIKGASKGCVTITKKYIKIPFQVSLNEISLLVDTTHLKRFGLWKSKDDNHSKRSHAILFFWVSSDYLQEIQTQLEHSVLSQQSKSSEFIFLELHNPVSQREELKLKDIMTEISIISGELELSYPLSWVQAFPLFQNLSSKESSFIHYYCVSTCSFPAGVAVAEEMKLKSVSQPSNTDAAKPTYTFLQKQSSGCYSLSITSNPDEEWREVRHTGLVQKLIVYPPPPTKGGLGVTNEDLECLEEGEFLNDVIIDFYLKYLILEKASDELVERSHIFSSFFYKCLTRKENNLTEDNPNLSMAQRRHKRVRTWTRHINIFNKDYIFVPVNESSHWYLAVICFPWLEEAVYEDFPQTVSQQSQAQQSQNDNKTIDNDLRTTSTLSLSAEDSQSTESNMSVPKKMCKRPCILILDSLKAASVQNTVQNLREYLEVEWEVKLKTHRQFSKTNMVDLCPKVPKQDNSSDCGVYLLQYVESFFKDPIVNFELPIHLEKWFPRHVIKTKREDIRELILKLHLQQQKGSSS

[7] = Luminescence Cell-Based Dose Response HTS to Identify Inhibitors of 5'UTR Stem-Loop Driven Prion Protein mRNA Translation in H4 Neuroglioblastoma Cells. [Related pubchem assays: 1827 (Project Summary), 1813 (Primary HTS)]; type: functional
Caspase-3 = target: T3, Caspase-3 (Homo sapiens, UniProt P42574); type: functional;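 further: Dose-response selectivity test against caspase-3 for candidate inhibitors of sentrin-specific proteases (SENPs)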
T3 sequence (P42574 whole entry): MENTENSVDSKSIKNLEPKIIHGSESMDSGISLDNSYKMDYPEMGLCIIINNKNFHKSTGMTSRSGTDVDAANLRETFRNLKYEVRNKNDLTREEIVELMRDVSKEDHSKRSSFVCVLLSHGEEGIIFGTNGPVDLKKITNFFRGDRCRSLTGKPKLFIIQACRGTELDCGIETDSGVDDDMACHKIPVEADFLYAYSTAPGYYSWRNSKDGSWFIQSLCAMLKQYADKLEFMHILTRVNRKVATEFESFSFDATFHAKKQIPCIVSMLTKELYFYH

[8] = toxicity toward HepG2 liver cells – cell-based, plate reader, cherry-pick, antagonist series, cytotoxicity control, dose response (AID 743416); type: functional
[9] = viability loss in HEK293 cells – cell-based, plate reader, cherry-picked samples, cytotoxicity control, dose response (AID 743446); type: functional
[10] = target: T4, Sentrin-specific protease 8 (Homo sapiens, UniProt Q96LD8); type: functional;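 further: luminescence read-out of SENP8 inhibition, dose-response confirmation following an ultra-high-throughput screen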
T4 sequence (Q96LD8 whole entry): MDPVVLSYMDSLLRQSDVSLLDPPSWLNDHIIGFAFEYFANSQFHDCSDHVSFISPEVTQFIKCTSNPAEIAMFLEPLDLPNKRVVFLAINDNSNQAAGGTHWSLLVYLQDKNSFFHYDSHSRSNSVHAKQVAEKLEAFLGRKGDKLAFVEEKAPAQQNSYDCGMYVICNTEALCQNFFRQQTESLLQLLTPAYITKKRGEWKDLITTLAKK

[11] = alpha-synuclein stem-loop luciferase translation blockers – H4 neuroglioma cells, luminescence, confirmation (AID 1988); type: functional, cell-based
HEK293 = experiment: EBV LMP1 TES2 canonical NF-kB signalling blockers – cell-based, HEK293, luciferase, cherry-pick, dose response (AID 588343); type: functional; conditions: Homo sapiens
Protein Wnt-3a = Protein Wnt-3a (Mus musculus, UniProt P27467); experiment: antagonism of Wnt3a pathway luciferase reporter – Wnt-LIGHT cells, luminescence, selectivity assay for Gli-SUFU antagonist project, dose response (AID 651570); type: functional; conditions: read-out: IC50_Mean;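 further: Wnt-LIGHT reporter cells stimulated with conditioned medium from Wnt3a-producing cells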
INS1 = experiment: INS-1E survival protection against cytokine death – cell-based, luminescence, retest, dose response (AID 449756); type: functional; conditions: Rattus norvegicus;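 further: cell death triggered by IL-1 beta plus TNF-alpha plus IFN-gamma mixture; protective hits raise ATP signal compared with cytokine alone wells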
[12] = non-specific 3'UTR reporter inhibition in Clone20-Shn3RL – cell-based, Renilla luciferase, cherry-picked, counter-screen for Shn3 inhibitor project, dose response (AID 624133); type: functional
[13] = reduction of Shn3 3'UTR-driven luciferase in osteoblasts – cell-based, Clone20 osteoblasts, firefly luciferase, cherry-picked, dose response (AID 624132); type: functional;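 further: firefly luciferase luminescence from reporter carrying the Shn3 3'UTR in osteoblasts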
[14] = loss of viability in HepG2 cells – cell-based, CellTiter-Glo, cherry-picked, cytotoxicity control for Shn3 inhibitor project, dose response (AID 624134); type: functional
[15] = target: T5, Probable nicotinate-nucleotide adenylyltransferase (Staphylococcus aureus (strain N315), UniProt P65502); type: functional, Staphylococcus aureus subsp. aureus N315; conditions: read-out: IC50_Mean;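 on IC50 Mean: confirmatory dose-response retesting of NadD inhibitor hits first found in an ultra-high-throughput screen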
[16] = target: T5, Probable nicotinate-nucleotide adenylyltransferase; type: functional, Staphylococcus aureus subsp. aureus N315
BJ [17] = experiment: BJ-TERT-LT-ST fibroblast viability loss – cell-based, RAS-independent, luminescence, dose response (AID 1935); type: functional; conditions: Homo sapiens;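 further: BJ fibroblasts immortalized with TERT plus LT and ST oncogenes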
BJ [18] = experiment: cells; type: functional, cell-based; conditions: Homo sapiens
[19] = Fluorescence-based cell-based high throughput dose response assay for inhibitors of the interaction of nucleotide-binding oligomerization domain containing 2 (NOD2) and the receptor-interacting serine-threonine kinase 2 (RIPK2).; type: functional; conditions: Homo sapiens
[20] = DRD fibroblast viability loss – cell-based, non-viral oncogenic, luminescence, dose response (AID 1934); type: functional; conditions: Homo sapiens
[21] = target: T6, Microphthalmia-associated transcription factor (Homo sapiens, UniProt O75030); experiment: reducers of TRPM1 reporter luminescence, concentration series – cell-based, SK-MEL-5, cherry-picked, set 3, MITF inhibitor project, dose response (AID 493073); type: functional;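 further: SK-MEL-5 melanoma cells with luciferase driven by the MITF target TRPM1 promoter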
T6 sequence (O75030 whole entry): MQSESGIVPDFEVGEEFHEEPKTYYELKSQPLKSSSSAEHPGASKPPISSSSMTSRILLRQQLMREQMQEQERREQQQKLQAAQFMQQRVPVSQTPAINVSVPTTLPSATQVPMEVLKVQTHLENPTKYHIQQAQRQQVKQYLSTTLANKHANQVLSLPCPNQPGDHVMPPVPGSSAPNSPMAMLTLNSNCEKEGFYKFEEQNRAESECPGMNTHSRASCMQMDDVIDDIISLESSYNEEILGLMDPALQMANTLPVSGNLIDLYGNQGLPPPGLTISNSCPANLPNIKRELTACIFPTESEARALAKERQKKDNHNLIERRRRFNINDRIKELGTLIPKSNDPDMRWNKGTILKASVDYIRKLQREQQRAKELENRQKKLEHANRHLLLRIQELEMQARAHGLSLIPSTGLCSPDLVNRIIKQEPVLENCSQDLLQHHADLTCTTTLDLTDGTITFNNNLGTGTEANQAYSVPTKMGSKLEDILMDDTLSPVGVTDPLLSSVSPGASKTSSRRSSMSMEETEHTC

BJ [22] = experiment: BJ-TERT fibroblast viability loss – cell-based, RAS-independent, luminescence, dose response (AID 1933); type: functional; conditions: Homo sapiens
[23] = target: T7, Heat shock factor protein 1 (Mus musculus, UniProt P38532); experiment: enhancement of HSF1-driven luciferase signal – cell-based, NIH3T3, luminescence, dose retest, confirmation (AID 435004); type: functional;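 further: stress induced by proteasome inhibitor MG132 added 30 min after compound; luciferase reporter driven by HSF1 response element in NIH3T3 cells; actives raise luminescence as potentiators of the MG132 stress response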
T7 sequence (P38532 whole entry): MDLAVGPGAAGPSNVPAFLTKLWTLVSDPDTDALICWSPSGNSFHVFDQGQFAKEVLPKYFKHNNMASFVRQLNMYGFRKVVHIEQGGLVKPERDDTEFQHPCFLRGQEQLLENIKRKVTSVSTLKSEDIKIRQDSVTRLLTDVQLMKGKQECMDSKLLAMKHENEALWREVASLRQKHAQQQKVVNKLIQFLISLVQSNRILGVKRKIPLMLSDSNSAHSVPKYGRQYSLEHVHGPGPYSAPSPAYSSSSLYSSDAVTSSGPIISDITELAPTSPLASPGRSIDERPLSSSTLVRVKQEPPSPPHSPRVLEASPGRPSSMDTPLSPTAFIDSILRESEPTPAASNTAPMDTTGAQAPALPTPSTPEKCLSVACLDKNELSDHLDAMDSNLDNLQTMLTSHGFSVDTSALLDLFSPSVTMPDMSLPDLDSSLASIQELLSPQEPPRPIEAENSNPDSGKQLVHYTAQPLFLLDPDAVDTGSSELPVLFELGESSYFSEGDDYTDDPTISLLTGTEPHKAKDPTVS

[24] = target: Heat shock protein HSP 90-alpha (Homo sapiens, UniProt P07900); type: functional, organism-based
[25] = target: Photoreceptor-specific nuclear receptor (Homo sapiens, UniProt Q9Y5X4); type: functional, cell-based;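 further: CHO-S cells with Gal4-NCOR and VP16-NR2E3 two-hybrid luciferase reporter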
Chain of Photoreceptor-specific nuclear receptor (Q9Y5X4 whole entry, the tested form may be a part): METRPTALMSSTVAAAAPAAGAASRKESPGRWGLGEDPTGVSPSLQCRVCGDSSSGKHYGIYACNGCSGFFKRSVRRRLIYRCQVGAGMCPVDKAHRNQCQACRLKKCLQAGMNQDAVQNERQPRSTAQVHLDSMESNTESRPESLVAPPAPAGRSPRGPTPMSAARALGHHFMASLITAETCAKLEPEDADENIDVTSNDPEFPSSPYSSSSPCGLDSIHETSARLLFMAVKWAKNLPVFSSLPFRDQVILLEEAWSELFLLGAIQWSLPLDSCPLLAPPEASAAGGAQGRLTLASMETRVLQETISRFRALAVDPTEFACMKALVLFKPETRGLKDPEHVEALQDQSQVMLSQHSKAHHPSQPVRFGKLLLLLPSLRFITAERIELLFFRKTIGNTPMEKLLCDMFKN

T5 sequence (P65502 whole entry): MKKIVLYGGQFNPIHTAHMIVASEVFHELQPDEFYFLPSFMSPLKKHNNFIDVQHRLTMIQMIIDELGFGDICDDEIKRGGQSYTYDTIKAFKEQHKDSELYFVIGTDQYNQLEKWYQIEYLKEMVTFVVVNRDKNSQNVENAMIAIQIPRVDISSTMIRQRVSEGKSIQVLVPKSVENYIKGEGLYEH
Chain of Protein Wnt-3a (P27467 whole entry): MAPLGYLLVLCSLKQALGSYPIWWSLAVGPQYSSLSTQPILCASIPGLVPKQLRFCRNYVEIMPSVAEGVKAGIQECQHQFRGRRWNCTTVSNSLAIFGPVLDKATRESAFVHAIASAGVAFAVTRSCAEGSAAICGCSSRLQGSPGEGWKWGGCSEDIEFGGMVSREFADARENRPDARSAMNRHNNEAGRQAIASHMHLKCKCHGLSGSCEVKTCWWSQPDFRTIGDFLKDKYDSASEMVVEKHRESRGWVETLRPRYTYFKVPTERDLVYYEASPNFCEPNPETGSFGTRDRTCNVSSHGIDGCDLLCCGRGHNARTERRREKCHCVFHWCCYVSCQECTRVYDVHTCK
Chain of Adenosylmethionine-8-amino-7-oxononanoate aminotransferase (P9WQ81 whole entry): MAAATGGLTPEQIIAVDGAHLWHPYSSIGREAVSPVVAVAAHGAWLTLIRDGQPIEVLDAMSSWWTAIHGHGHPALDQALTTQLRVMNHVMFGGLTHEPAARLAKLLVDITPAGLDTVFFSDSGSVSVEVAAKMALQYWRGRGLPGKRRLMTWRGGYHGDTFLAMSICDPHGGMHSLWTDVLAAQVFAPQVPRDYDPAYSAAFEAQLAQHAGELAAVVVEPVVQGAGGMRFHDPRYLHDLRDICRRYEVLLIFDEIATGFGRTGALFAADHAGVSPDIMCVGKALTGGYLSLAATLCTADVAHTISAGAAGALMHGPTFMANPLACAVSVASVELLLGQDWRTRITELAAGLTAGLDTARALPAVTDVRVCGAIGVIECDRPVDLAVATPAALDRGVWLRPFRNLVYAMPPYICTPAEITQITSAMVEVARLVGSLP

## CC(CNC(=O)CCCn1ncn2c(cc3occc32)c1=O)c1ccccc1 (stereo not drawn)
[1]
  AC50: 0.785 µM (active)

## Cc1ccc(/C=C/c2nc(O)c3ccccc3n2)cc1
[2]
  AC50: > 52 µM (inactive)
[3]
  AC50: 2.73 µM (active)
[4]
  AC50: 2.45 µM (active)
[5]
  IC50: 0.961 µM (active)
[6]
  IC50: 0.788 µM (active)
[7]
  EC50: 14.8 µM (active)
Caspase-3
  IC50: 0.999 µM (active)
[8]
  AC50: > 52 µM (inactive)
[9]
  AC50: > 52 µM (inactive)
[10]
  IC50: 1.5 µM (active)
[11]
  EC50: 4.45 µM (inconclusive)
HEK293
  AC50: 1.88 µM (active)

## CC1CCC(NC(=O)c2cccc(S(=O)(=O)N3CCN(c4ccccc4)CC3)c2)CC1 (stereo not drawn)
Protein Wnt-3a
  IC50: 28.3 µM (inactive)

## CC(CC(=O)N1CCN(c2cccc(Cl)c2)CC1)S(=O)(=O)c1ccc2c(c1)NC(=O)CO2 (stereo not drawn)
INS1
  AC50: 5.65 µM (active)
[12]
  AC50: 5.37 µM (active)
Protein Wnt-3a
  IC50: 15.1 µM (active)
[13]
  AC50: 3.99 µM (active)
[14]
  AC50: 34.7 µM (active)

## CCC(C)n1c(=O)c(C(=O)Nc2ccccc2S(N)(=O)=O)c(O)c2ccccc21 (stereo not drawn)
[15]
  IC50: 41.1 µM (active)
[16]
  IC50: 5.92 µM (active)

## COc1cc2c(cc1/C=C/[N+](=O)[O-])OCO2
BJ [17]
  EC50: 8.52 µM (inconclusive)
BJ [18]
  EC50: 11.5 µM (inconclusive)
[19]
  IC50: 3.19 µM (active)
[20]
  EC50: 6.07 µM (active)
[21]
  AC50: 8.98 µM (active)
BJ [22]
  EC50: 8.89 µM (inconclusive)
[23]
  EC50: 8.55 µM (active)
[24]
  AC50: 4.25 µM (active)

## COc1ccc(C)cc1NC(=O)c1nnn(Cc2cccc(C(F)(F)F)c2)c1N
[25]
  IC50: 39.8 µM (inactive)

## Cc1ccc(-c2nn(CCC(=O)Nc3cccnc3)c(=O)c3ccccc23)cc1
[1]
  AC50: 0.148 µM (active)

## O=C(CSc1nnc(SCc2ccccc2)s1)N/N=C/C=C/c1ccco1
[15]
  IC50: 27.6 µM (active)
[16]
  IC50: 12 µM (active)
